Measurements published in patent EP2322194A2 (Reprise Biopharmaceutics, LLC, priority 2003, dated 2005).
Where “and” joins values, the source holds several entries; their conditions need not be identical. Equal entries are not always repeated. Where two headings read alike, the source gives them in different places.

Test system: over-hydrated, healthy, non-smoking male and female volunteers
Assay type: in vivo, human
Conditions: for Urine Output: individual subjects
Method: Briefly, an open-label, crossover study with 8 healthy, over-hydrated, non-smoking male and female volunteers, age 18-40. The subjects were dosed initially with 0.5 ng/kg dose, then with the 1.0 ng/kg dose and finally the 2.0 ng/kg dose. Pharmacodynamic and pharmacokinetic parameters were evaluated at each dose level. A washout period of two days (48 hours) was observed between dosing. Eight subjects evaluated in this study, 5 males, and 3 females. […] Each subject remained in the clinic from one day prior to first dosing to one day after last dosing for a total of 7 days. […] At this point over-hydration was discontinued. […] Urine-specific gravity was also measured. […] This same procedure was followed for the 1.0 ng/kg and 2.0 ng/kg infusions. […] Criteria for evaluation in the study included urine output over time, urine osmolality over time, urine-specific gravity over time, and […] osmolality and sodium over time. Statistical analysis on the above criteria was performed. The statistical analysis is descriptive and all statistical hypothesis testing was done for exploratory purposes. […] The second and third estimation used 200 mOsm/kg and 400 mOsm/kg as cut off levels for 'onset' and 'end' of action, respectively. […] The overall duration of action was estimated for each dose group using the nonparametric Kaplan-Meier method. […] Furthermore, the duration of action was presented for each treatment group using the mean, SD, median, minimum and maximum values. The dose-response relationship between duration of action and dose was investigated using an appropriate linear or nonlinear model.

[1] = 1.0 ng/kg, time -20 min (baseline)
[2] = 2.0 ng/kg, time 0 min (baseline)
[3] = 2.0 ng/kg, time -20 min (baseline)

1-desamino-8-D-arginine vasopressin [desmopressin]
Urine Osmolality, Mean (1.0 ng/kg, time 140 min): 412.2 mOsm/kg | Urine Output, Mean (1.0 ng/kg, time 140 min): 1.8 mL/min | Urine Output (1.0 ng/kg, time 140 min): 0 mL/min | Urine Osmolality, Mean (1.0 ng/kg, time 160 min): 261.7 mOsm/kg | Urine Output, Mean (1.0 ng/kg, time 160 min): 3.2 mL/min | Urine Osmolality, Mean (1.0 ng/kg, time 180 min): 280.9 mOsm/kg | Urine Output, Mean (1.0 ng/kg, time 180 min): 5.0 mL/min | Urine Output (1.0 ng/kg, time 180 min): 7.1 mL/min | Urine Osmolality, Mean (1.0 ng/kg, time 200 min): 216.3 mOsm/kg | Urine Output, Mean (1.0 ng/kg, time 200 min): 6.7 mL/min | Urine Output (1.0 ng/kg, time 200 min): 4.3 mL/min | Urine Osmolality, Mean (1.0 ng/kg, time 220 min): 121.4 mOsm/kg | Urine Output, Mean (1.0 ng/kg, time 220 min): 7.3 mL/min | Urine Osmolality, Mean (1.0 ng/kg, time 240 min): 181.6' mOsm/kg | Urine Output (1.0 ng/kg, time 240 min): 5.5 mL/min | Urine Osmolality, Mean (1.0 ng/kg, time 260 min): 181.8 mOsm/kg | Urine Output, Mean (1.0 ng/kg, time 260 min): 6.6 mL/min | Urine Output (1.0 ng/kg, time 260 min): 4.7 mL/min | Urine Osmolality, Mean (1.0 ng/kg, time 280 min): 242.5 mOsm/kg | Urine Output, Mean (1.0 ng/kg, time 280 min): 4.7 mL/min | Urine Output (1.0 ng/kg, time 280 min): 0 mL/min | Urine Osmolality, Mean (1.0 ng/kg, time 300 min): 202.0 mOsm/kg | Urine Output (1.0 ng/kg, time 300 min): 11.5 mL/min | Urine Osmolality, Mean (1.0 ng/kg, time 320 min): 164.8 mOsm/kg | Urine Output (1.0 ng/kg, time 320 min): 6.7 mL/min | Urine Osmolality, Mean (1.0 ng/kg, time 340 min): 155.5 mOsm/kg | Urine Output, Mean (1.0 ng/kg, time 340 min): 10.6 mL/min | Urine Osmolality, Mean (1.0 ng/kg, time 360 min): 156.3 mOsm/kg | Urine Output, Mean (1.0 ng/kg, time 360 min): 10.4 mL/min | Urine Osmolality, Mean [1]: 55.8 mOsm/kg | Urine Output, Mean [1]: 16.6 mL/min | Urine Output [1]: 10.2 mL/min and 16.8 mL/min | duration of antidiuretic effect (2.0 ng/kg dose): ~360 min | Mean peak urine osmolality (2.0 ng/kg dose, at 2 hours): 587.2 mOsm/kg | Baseline mean urine osmolality (2.0 ng/kg dose, baseline): 55.6 mOsm/kg | Baseline mean urine output (2.0 ng/kg dose, baseline): 16.9 mL/min | Mean nadir urine output (2.0 ng/kg dose, end of 2 hour infusion): 0.7 mL/min | Urine Osmolality, Mean [2]: 56.0 mOsm/kg | Urine Output, Mean [2]: 16.5 mL/min | Urine Osmolality, Mean (2.0 ng/kg, time 20 min): 75.6 mOsm/kg | Urine Output, Mean (2.0 ng/kg, time 20 min): 10.5 mL/min | Urine Osmolality, Mean (2.0 ng/kg, time 40 min): 301.4 mOsm/kg | Urine Output, Mean (2.0 ng/kg, time 40 min): 2.3 mL/min | Urine Osmolality, Mean (2.0 ng/kg, time 60 min): 410.0 mOsm/kg | Urine Output, Mean (2.0 ng/kg, time 60 min): 1.3 mL/min | Urine Osmolality, Mean (2.0 ng/kg, time 80 min): 516.0 mOsm/kg | Urine Output, Mean (2.0 ng/kg, time 80 min): 0.7 mL/min | Urine Osmolality, Mean (2.0 ng/kg, time 100 min): 525.6 mOsm/kg | Urine Output, Mean (2.0 ng/kg, time 100 min): 0.7 mL/min | Urine Osmolality, Mean (2.0 ng/kg, time 120 min): 587.2 mOsm/kg | Urine Output, Mean (2.0 ng/kg, time 120 min): 0.7 mL/min | Urine Osmolality, Mean (2.0 ng/kg, time 140 min): 576.7 mOsm/kg | Urine Output, Mean (2.0 ng/kg, time 140 min): 1.0 mL/min | Urine Osmolality, Mean (2.0 ng/kg, time 160 min): 534.7 mOsm/kg | Urine Output, Mean (2.0 ng/kg, time 160 min): 1.2 mL/min | Urine Osmolality, Mean (2.0 ng/kg, time 180 min): 534.3 mOsm/kg | Urine Output, Mean (2.0 ng/kg, time 180 min): 1.2 mL/min | Urine Osmolality, Mean (2.0 ng/kg, time 200 min): 494.5 mOsm/kg | Urine Output, Mean (2.0 ng/kg, time 200 min): 1.1 mL/min | Urine Osmolality, Mean (2.0 ng/kg, time 220 min): 438.7 mOsm/kg | Urine Output, Mean (2.0 ng/kg, time 220 min): 1.3 mL/min | Urine Osmolality, Mean (2.0 ng/kg, time 240 min): 455.1 mOsm/kg | Urine Output, Mean (2.0 ng/kg, time 240 min): 2.2 mL/min | Urine Osmolality, Mean (2.0 ng/kg, time 260 min): 355.3 mOsm/kg | Urine Output, Mean (2.0 ng/kg, time 260 min): 2.4 mL/min | Urine Osmolality, Mean (2.0 ng/kg, time 280 min): 343.2 mOsm/kg | Urine Output, Mean (2.0 ng/kg, time 280 min): 2.5 mL/min | Urine Osmolality, Mean (2.0 ng/kg, time 300 min): 324.4 mOsm/kg | Urine Output, Mean (2.0 ng/kg, time 300 min): 3.2 mL/min | Urine Osmolality, Mean (2.0 ng/kg, time 320 min): 220.9 mOsm/kg | Urine Output, Mean (2.0 ng/kg, time 320 min): 6.6 mL/min | Urine Osmolality, Mean (2.0 ng/kg, time 340 min): 173.0 mOsm/kg | Urine Osmolality, Mean (2.0 ng/kg, time 360 min): 143.8 mOsm/kg | Urine Output, Mean (2.0 ng/kg, time 360 min): 9.3 mL/min | Urine Osmolality, Mean [3]: 55.6 mOsm/kg | Urine Output, Mean [3]: 16.9 mL/min | antidiuretic effect (low doses as i.v. infusions over 2 hours, dose response fashion): significant antidiuretic effects
